Measured values taken from patent publication US11111237B2, “Bicyclic compound and use thereof” (SK BIOPHARMACEUTICALS CO., LTD., priority 2019, dated 2021).
pIC50: −log10 of the molar value.

Tests used:
[1] = molecular target: PRMT5-MEP50 enzyme complex (Homo sapiens (Human), UniProt O14744); test: PRMT5 enzyme activity in vitro assay (methylation of histone H4R3, ELISA absorbance at 450 nm); assay type: biochemical; conditions: SAM, histone H4 peptide, room temperature 2 hours, 8 points from 10 μM to 0.128 nM
Sequence of PRMT5-MEP50 enzyme complex (O14744 2-637): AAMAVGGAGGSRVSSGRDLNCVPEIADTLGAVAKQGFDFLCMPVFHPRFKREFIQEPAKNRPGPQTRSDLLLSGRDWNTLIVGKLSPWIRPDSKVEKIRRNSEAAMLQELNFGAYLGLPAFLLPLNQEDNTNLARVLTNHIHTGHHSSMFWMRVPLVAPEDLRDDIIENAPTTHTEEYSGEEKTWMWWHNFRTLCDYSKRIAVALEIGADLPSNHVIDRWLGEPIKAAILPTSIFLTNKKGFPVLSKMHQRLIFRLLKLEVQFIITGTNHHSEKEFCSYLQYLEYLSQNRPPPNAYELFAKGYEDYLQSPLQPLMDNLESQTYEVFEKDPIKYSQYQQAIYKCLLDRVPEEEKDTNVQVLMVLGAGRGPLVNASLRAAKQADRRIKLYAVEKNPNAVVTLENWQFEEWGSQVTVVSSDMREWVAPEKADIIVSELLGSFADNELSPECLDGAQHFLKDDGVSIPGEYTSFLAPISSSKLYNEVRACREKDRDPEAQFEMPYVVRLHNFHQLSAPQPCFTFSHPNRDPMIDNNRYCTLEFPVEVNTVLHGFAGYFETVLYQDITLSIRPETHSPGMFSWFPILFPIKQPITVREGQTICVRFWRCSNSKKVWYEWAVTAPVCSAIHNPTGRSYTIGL
Sequence of PRMT5-MEP50 enzyme complex (Q9BQA1 2-342 partner): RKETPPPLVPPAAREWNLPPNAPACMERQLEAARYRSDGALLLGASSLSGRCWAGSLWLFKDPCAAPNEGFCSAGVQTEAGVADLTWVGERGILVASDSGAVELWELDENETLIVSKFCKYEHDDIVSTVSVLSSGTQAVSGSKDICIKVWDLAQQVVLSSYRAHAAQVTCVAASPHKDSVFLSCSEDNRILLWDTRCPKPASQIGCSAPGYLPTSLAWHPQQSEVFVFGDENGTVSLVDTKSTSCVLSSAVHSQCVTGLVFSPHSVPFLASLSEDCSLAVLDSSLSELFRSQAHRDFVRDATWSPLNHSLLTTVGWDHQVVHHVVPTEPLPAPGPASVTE
Summary of the method: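 Human PRMT5-MEP50 was prepared at 5 μg/mL with SAM at 2 μM and reacted 2 h at room temperature on plate-coated histone H4 (1-20) peptide. An 8-point 1:5 compound series ran from 10 μM to 0.128 nM. H4R3 methylation was detected by antibody/HRP ELISA at 450 nm to give IC50.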

[2] = system: SDMA levels in the tumor (U87MG tumor cells implanted subcutaneously); test: Test for in vivo target inhibitory activity (SDMA levels in U87MG tumor); conditions: U87MG tumor in nude mice, oral 25 or 50 mg/kg 1-2 times daily for one week
Experimental: Test for in vivo target inhibitory activity
After U87MG tumor cells were implanted subcutaneously in nude mice, a PRMT5 inhibitor was administered orally (25 or 50 mg/kg) 1-2 times daily for one week, and then the degree to which SDMA levels in the tumor decreased was measured.
Reagents: Bradford's solution (Catalog No. 500-0006) was purchased from Bio-rad (USA). SDMA antibody (Catalog No. 13222s) was purchased from Cell Signaling Technology (USA). SmD3 antibody (Catalog No. ap12451a) was purchased from Abgent (USA), and secondary antibody (Catalog No. ab6721) and TMB substrate (Catalog No. ab210902) were purchased from Abcam (UK).
Experimental procedure: The tumor tissues transplanted into the mice were excised, the cells were lysed, and then quantified with Bradford's solution. 5-10 μg of protein per sample was diluted with carbonate-bicarbonate buffer and dispensed into a 96-well plate and reacted at room temperature for 2 hours. After washing with phosphate buffered saline (PBST) containing 0.05% Tween-20 3 times, 200 μL of PBST containing 5% bovine serum albumin (BSA-PBST) was added and reacted at room temperature for 2 hours. After washing with PBST 3 times, the SDMA antibody and the SmD3 antibody were diluted in BSA-PBST, and 100 μL of each was dispensed onto the plate and reacted at 4° C. overnight. After washing with PBST 3 times the next day, 100 μL of the secondary antibody diluted in BSA-PBST was added and reacted at room temperature for 1 hour. After washing with PBST 3 times, 100 μL of TMB substrate was added and reacted at room temperature for 10-20 minutes, and 100 μL of 1N sulfuric acid solution was added to terminate the reaction. Then, the absorbance at 450 nm was measured to calculate the degree of SDMA inhibition by the compound. (+++: more than 70%, ++: more than 30% and 70% or less, +: 30% or less)

Row | SMILES | pIC50 [1] | SDMA inhibition (%) [2]
1 | CCCc1ccc2c(c1)OCCN(C[C@H](O)CN1CCc3ccccc3C1)C2=O [Example 11, 4-[(2R)-3-(3,4-dihydro-1H-isoquinolin-2-yl)-2-hydroxy-propyl]-8-propyl-2,3-dihydro-1,4-benzoxazepin-5-one] | 6.00 to 7.00 | ++ (++: more than 30% and 70% or less)
2 | O=C1c2ccc(CN3CCOCC3)cc2OCCN1C[C@H](O)CN1CCc2ccccc2C1 [Example 22, 4-[(2R)-3-(3,4-dihydro-1H-isoquinolin-2-yl)-2-hydroxy-propyl]-8-(morpholinomethyl)-2,3-dihydro-1,4-benzoxazepin-5-one] | 7.00 to 9.00 | +++ (+++: more than 70%)
